Results on 2 molecules are retold here after US20230023332A1, “OLEAN-PHENYLACRYLAMIDE DERIVATIVE, METHOD FOR PREPARING SAME, AND USE THEREOF” (Lunan Pharmaceutical Group Corporation, priority 2019, published 2023).

The test system of data set [1] is human breast cancer cell strain MCF-7. The data set can be described thus: MTT proliferation inhibition, MCF-7. The class given is cell-based. To be noted: Homo sapiens, MCF7, MCF-7 cells, 48 h, read-out: Inhibitory activity (IC50) against proliferation, MCF-7. The procedure: (§1) The anti-tumor activity of the compounds of the present invention was determined by the method of methyl thiazolyl tetrazolium (MTT), Bardoxolone Methyl (CDDO-Me) being selected as a positive control medicament.
(§2) Instruments: ultra-clean bench (SW-CJ-1FD, AIRTECH, Suzhou Antai Airtech Co. Ltd.), constant-temperature CO2 incubator (3111, Thermo, USA), inverted biomicroscope (IX71, OLYMPUS, Japan), ELISA microplate reader (Model 680, BIO-RAD, USA), platform shaker (Kylin-bell lab Instruments), autoclave (YXO.SG4I.280, Shanghai Huaxian), and centrifuge (SIGMA).
(§3) Reagents: DMEM (GIBCO), fetal bovine serum (GIBCO), trypsin (SIGMA), and DMSO (SIGMA).
(§4) Cell strains: human non-small cell lung cancer cell strain A549, human liver cancer cell strain HepG2, human breast cancer cell strain MCF-7, human renal tubular epithelial cells HK-2, rat embryonic cardiomyocytes H9C2 (all provided by Jiangsu KeyGEN BioTECH Co., Ltd.).
(§5) Methods: the cryopreserved cell strains were resuscitated and cultured in a CO2 incubator at a constant temperature of 37° C. with liquid being changed once daily. Plating was carried out when the cell strains were in a good state in the exponential phase. 1 mL of 0.25% trypsin solution was added for digestion for 1-2 min. The cell status was observed under the microscope, and when the adherent cells became round and shrunk, the digestion solution was aspirated and 1-2 mL of a DMEM medium containing 10% fetal bovine serum was added to obtain a cell suspension, on which a cell count was performed. The amount of required cell suspension was calculated on the basis of 5×10^4 cells per well and the total number of wells. The cell suspension was inoculated on a 96-well plate at 100 μL/well, the surroundings being blocked with PBS, followed by incubation in a CO2 incubator at a constant temperature of 37° C. for 24 h.
(§6) The test medicament, positive control medicament CDDO-Me, and blank control group DMSO were prepared in DMEM media to a final concentration of 5 μM/well, each medicament being placed in 3 replicate wells, followed by incubation for 48 h. The MTT reagent was added to the 96-well plate at 10 μL/well to further incubate for 4 h. The medium in the plate was aspirated and 100 μL of DMSO was added to each well, followed by shaking on the platform shaker for 10 min such that the crystals were dissolved. The absorbance of each well was examined by the ELISA microplate reader at a wavelength of 570 nm, and the cell inhibition rate was calculated according to the formula hereinafter. The mean value of three preliminary screening results was taken as the final inhibition rate thereof.
(§7) Cell inhibition rate (%)=[(OD value of blank control−OD value of dosing cohort)/OD value of blank control group]×100%

In the next data set the test system is M-MDSC, PMN-MDSC. The data set is described as follows: Spleen M-MDSC / PMN-MDSC by flow cytometry in S180 tumor-bearing mice. The class given is in vivo, ICR mice. The settings on record: 7 days; for M-MDSC: CD11b+LY6Chi+; for PMN-MDSC: CD11b+LY6G+. The procedure: (§8) 1) Experimental animals: 72 female ICR mice between 6 and 8 weeks of age; experimental cells: S180 ascitic tumor cells.
(§9) 8 animals were used as the normal group, and the rest of the mice were subjected to modeling by the following method.
(§10) 2) Proliferation and passaging of S180 ascitic tumor cells: S180 ascitic tumor cells cryopreserved at −80° C. were thawed in a water bath at 37° C., placed in a 12 mL centrifuge tube, to which an appropriate amount of saline was added, and centrifuged at 1200 rpm for 5 min. The supernatant was discarded, then the cells were resuspended in 300 μL of saline and intraperitoneally injected into an ICR mouse. As the mouse's abdomen swelled up, intraperitoneal injection of the cells in a second ICR mouse was performed, and the cells were ready for inoculation when the abdomen thereof swelled up.
(§11) 3) Inoculation of S180 tumor cells in the armpit of mice: S180 cells cultured to 2 passages were centrifuged and saline was added to obtain a concentration of 1×10^7 cells/mL. A volume of 100 μL of the cells were injected subcutaneously into armpit of mice. A mouse tumor-bearing model was developed.
(§12) The model mice were divided into a tumor-bearing model group, a compound I-7 5 mg/kg group, a compound I-7 15 mg/kg group, a compound I-12 5 mg/kg group, a compound I-12 15 mg/kg group, a compound I-16 5 mg/kg group, a compound I-16 15 mg/kg group and a CDDO-Me 15 mg/kg group.
(§13) There were 8 mice in each group.
(§14) 4) Dosing: the medicaments were administered intragastrically when the tumor grew out.
(§15) An equal volume of 0.5% croscarmellose sodium was administered to the normal group and the model group.
(§16) The dosing was executed for 7 consecutive days. The mice were dissected the next day following the last dosing.
(§17) Testing items: the body weight, spleen weight and tumor weight were measured. The spleens were ground on ice, followed by red blood cell lysis and incubation with FITC-CD11b, LY6C, and LY6G antibodies for 15 min, and then tested for CD11b+LY6Chi+ and CD11b+LY6G+ with flow cytometry.
(In general: Flow cytometry measures light scatter and fluorescence of single cells or particles in a stream.)

The test system of data set [2] is human liver cancer cell strain HepG2. The data set is described as follows: MTT proliferation inhibition, HepG2. The class given is cell-based. The settings on record: Homo sapiens, HepG2 cells, 48 h, read-out: Inhibitory activity (IC50) against proliferation, HepG2. The procedure:
as §1, §2, §3, §4, §5
The MTT reagent was added to the 96-well plate at 10 μL/well to further incubate for 4 h. The medium in the plate was aspirated and 100 μL of DMSO was added to each well, followed by shaking on the platform shaker for 10 min such that the crystals were dissolved. […] The mean value of three preliminary screening results was taken as the final inhibition rate thereof.
as §7

In data set [3] the test system is human non-small cell lung cancer cell strain A549. The data set can be described thus: MTT proliferation inhibition, A549. The class given is cell-based. To be noted: Homo sapiens, A549 cells, 48 h, read-out: Inhibitory activity (IC50) against proliferation, A549. The procedure: as §1, §2, §3, §4, §5, §6, §7
The test system of the next data set is S180 ascitic tumor cells. The data set is described as follows: Inhibitory effect on tumors in S180 tumor-bearing mice. The class given is in vivo, ICR mice. The settings on record: for Tumor Mass / Tumor inhibition rate: 7 consecutive days; for Splenic index: 7 days. The procedure:
as §8, §9, §10, §11, §12, §13, §14
Compound I-7 of 5 mg/kg was administered in the compound I-7 5 mg/kg group;
compound I-7 of 15 mg/kg was administered in the compound I-7 15 mg/kg group;
compound I-12 of 5 mg/kg was administered in the compound I-12 5 mg/kg group;
compound I-12 of 15 mg/kg was administered in the compound I-12 15 mg/kg group;
compound I-16 of 5 mg/kg was administered in the compound I-16 5 mg/kg group;
compound I-16 of 15 mg/kg was administered in the compound I-16 15 mg/kg group; and
CDDO-Me of 15 mg/kg was administered in the CDDO-Me 15 mg/kg group.
as §15, §16, §17

Data set [4] relates to rat embryonic cardiomyocytes H9C2. The data set is described as follows: MTT proliferation inhibition / toxicity, H9C2. The class given is cell-based. The settings on record: for IC50: Rattus norvegicus, H9C2 cardiomyocytes, MTT, 48 h, read-out: Inhibitory activity (IC50) against proliferation, H9C2. The procedure: as §1, §2, §3, §4, §5, §6, §7
The subject of data set [5] is human renal tubular epithelial cells HK-2. The data set is described as follows: MTT proliferation inhibition / toxicity, HK-2. To be noted: for IC50: Homo sapiens, HK-2 cells, MTT, 48 h, read-out: Inhibitory activity (IC50) against proliferation, HK-2; for toxicity to human renal tubular epithelial cells HK-2: statement in words. The class given is cell-based. The procedure: as §1, §2, §3, §4, §5, §6, §7

`CC1(C)CC[C@]2(NC(=O)/C=C(\C#N)c3ccc(C(F)(F)F)cc3)CC[C@]3(C)[C@H](C(=O)C=C4[C@@]5(C)C=C(C#N)C(=O)C(C)(C)[C@@H]5CC[C@]43C)[C@@H]2C1` [Compound I-16]: the IC50 came out at 958 ± 209 nM in data set [1]; 934 ± 11 nM in data set [2]; 888 ± 21 nM in data set [3]; 108 ± 7 nM in data set [4]; 618 ± 72 nM in data set [5]. Moreover, the M-MDSC is 0.71 ± 0.08 % with M-MDSC, PMN-MDSC (5 mg/kg intragastric) and 0.40 ± 0.07 % with M-MDSC, PMN-MDSC (15 mg/kg intragastric). Moreover, the PMN-MDSC came out at 8.72 ± 2.09 % with M-MDSC, PMN-MDSC (5 mg/kg intragastric) and 6.79 ± 1.55 % in the data set on M-MDSC, PMN-MDSC (15 mg/kg intragastric). Also, the “Tumor Mass” value in the data set on S180 ascitic tumor cells (5 mg/kg intragastric) is listed as 1.49 ± 0.17 ^ g; in the data set on S180 ascitic tumor cells (15 mg/kg intragastric), 0.96 ± 0.14 g. Also, the values for the Tumor inhibition rate with S180 ascitic tumor cells (5 mg/kg intragastric) and in the data set on S180 ascitic tumor cells (15 mg/kg intragastric) were 43.69% and 63.60%, respectively. Also, the Splenic index with S180 ascitic tumor cells (5 mg/kg intragastric) is on record as 47.86 ± 5.73^###* 10*mg/g; in the data set on S180 ascitic tumor cells (15 mg/kg intragastric), 46.45 ± 5.20^###* 10*mg/g. Further, in data set [5], the “toxicity to human renal tubular epithelial cells HK-2” value is listed as “lower toxicity”.

Turning to `CC1(C)CC[C@]2(NC(=O)/C(C#N)=C/c3ccc(Cl)cc3)CC[C@]3(C)[C@H](C(=O)C=C4[C@@]5(C)C=C(C#N)C(=O)C(C)(C)[C@@H]5CC[C@]43C)[C@@H]2C1` [Compound I-12], the IC50 in data set [1] was determined as 1640 ± 462 nM; in data set [2], 974 ± 58 nM; in data set [3], 761 ± 32 nM; in data set [4] it was 3140 ± 1530 nM; in data set [5], 2430 ± 33 nM. Further, the M-MDSC with M-MDSC, PMN-MDSC (5 mg/kg intragastric) is 0.63 ± 0.13 %; in the data set with M-MDSC, PMN-MDSC (15 mg/kg intragastric), 0.38 ± 0.23 %. Further, the PMN-MDSC with M-MDSC, PMN-MDSC (5 mg/kg intragastric) worked out at 8.86 ± 1.53 %; with M-MDSC, PMN-MDSC (15 mg/kg intragastric) it was 4.82 ± 0.62 %. In addition, the figures for the “Tumor Mass” value in the data set with S180 ascitic tumor cells (5 mg/kg intragastric) and in the data set on S180 ascitic tumor cells (15 mg/kg intragastric) were 1.33 ± 0.11 g and 0.66 ± 0.14 g, respectively. Moreover, the Tumor inhibition rate with S180 ascitic tumor cells (5 mg/kg intragastric) was determined as 49.55%; in the data set on S180 ascitic tumor cells (15 mg/kg intragastric) it was 74.96%. For the same molecule, the Splenic index was 45.99 ± 7.68^##* 10*mg/g with S180 ascitic tumor cells (5 mg/kg intragastric) and 44.37 ± 5.27^###** 10*mg/g in the data set on S180 ascitic tumor cells (15 mg/kg intragastric). In addition, the “inhibitory activity against normal cardiomyocytes H9C2 relative to CDDO-Me” value in data set [4] (fraction of the inhibitory activity of CDDO-Me) is “approximately 1/10”. For the same molecule, the “toxicity to human renal tubular epithelial cells HK-2” value in data set [5] is recorded as “lower toxicity”.
